Measured values: the supplement of paper PMC8617591

What was measured:
[1] = test system: Mycobacterium tuberculosis Erdman (autoluminescent); experiment: FIC90 (Loewe) at 90% inhibition (log2); higher = more antagonistic
Experimental: (§1)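 DiaMOND equipotent two-drug combination dose responses against autoluminescent M. tuberculosis Erdman in 8 in vitro models. Read-out is OD600, or luminescence for the intracellular and dormancy models, normalised to untreated wells. Hill-fit Einf, AUC25 and GRinf are potency metrics; FIC50 and FIC90 are Loewe-additivity fractional inhibitory concentrations, given as log2 (negative = synergy). Replicates are averaged.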

[2] = test system: Mycobacterium tuberculosis Erdman (autoluminescent); experiment: FIC50 (Loewe) at 50% inhibition (log2); higher = more antagonistic
Experimental: as §1

[3] = test system: Mycobacterium tuberculosis Erdman (autoluminescent); experiment: Einf, fitted maximum growth inhibition of combination (fraction); higher = stronger maximal inhibition
Experimental: as §1

[4] = test system: Mycobacterium tuberculosis Erdman (autoluminescent); experiment: AUC25, normalised area under dose response up to IC25 (fraction (0-1)); higher = more potent at low dose
Experimental: as §1

[5] = test system: Mycobacterium tuberculosis Erdman (autoluminescent); experiment: GRinf, maximum normalised growth rate inhibition (unitless (-1 to 1)); higher = less effect (negative = killing)
Experimental: as §1

CC(C)/N=c1\cc2n(-c3ccc(Cl)cc3)c3ccccc3nc-2cc1Nc1ccc(Cl)cc1 [clofazimine] + O=[N+]([O-])c1cn2c(n1)OC[C@@H](OCc1ccc(OC(F)(F)F)cc1)C2 [pretomanid]
Conditions | AUC25, [4] | Einf, [3] | FIC50, [2] | FIC90, [1] | GRinf, [5]
in vitro model: acidic pH 5.7, time point: constant (~7 days, model-specific) | 0.134 | 0.778 | -0.0507 | – | -0.287
in vitro model: acidic pH 5.7, time point: terminal (~4-5 doublings, model-specific) | 0.108 | 0.974 | -0.167 | 0.503 | -0.285
in vitro model: intracellular J774, time point: constant = terminal | – | 0.997 | – | 0.0803 | -0.541

Conditions | AUC25, [4] | Einf, [3] | FIC50, [2] | FIC90, [1] | GRinf, [5]
in vitro model: butyrate, time point: constant (~7 days, model-specific) | 0.117 | 0.967 | 0.464 | 1.35 | -0.167
in vitro model: butyrate, time point: terminal (~4-5 doublings, model-specific) | 0.111 | 0.995 | 0.356 | 1.26 | -0.159
in vitro model: cholesterol 0.05 mM, time point: constant (~7 days, model-specific) | 0.12 | 0.704 | 0.602 | – | 0.0886
in vitro model: cholesterol 0.05 mM, time point: terminal (~4-5 doublings, model-specific) | 0.132 | 0.919 | 0.632 | 0.298 | -0.123
in vitro model: cholesterol-high 0.2 mM, time point: constant (~7 days, model-specific) | 0.106 | 0.928 | 0.591 | 0.676 | -0.208
in vitro model: cholesterol-high 0.2 mM, time point: terminal (~4-5 doublings, model-specific) | 0.0964 | 1 | 0.631 | 0.816 | -0.69
in vitro model: dormancy (butyrate + nitrate, low O2), time point: constant (~7 days, model-specific) | 0.0762 | 0.892 | -0.213 | -1.07 | 0.195
in vitro model: dormancy (butyrate + nitrate, low O2), time point: terminal (~4-5 doublings, model-specific) | 0.0498 | 0.991 | -0.405 | -0.637 | -0.234
in vitro model: standard 7H9 glycerol, time point: constant = terminal | 0.116 | 0.964 | -0.193 | 0.585 | -0.211
in vitro model: valerate, time point: constant (~7 days, model-specific) | 0.136 | 0.884 | 0.762 | 1.18 | -0.0878
in vitro model: valerate, time point: terminal (~4-5 doublings, model-specific) | 0.097 | 0.925 | -0.0183 | 1.26 | -0.0377

CC[C@@H](CO)NCCN[C@@H](CC)CO [ethambutol] + CC(=O)NC[C@H]1CN(c2ccc(N3CCOCC3)c(F)c2)C(=O)O1 [linezolid]
Conditions | AUC25, [4] | Einf, [3] | FIC50, [2] | FIC90, [1] | GRinf, [5]
in vitro model: acidic pH 5.7, time point: constant (~7 days, model-specific) | 0.0997 | 0.79 | 0.0133 | – | -0.243
in vitro model: acidic pH 5.7, time point: terminal (~4-5 doublings, model-specific) | 0.0783 | 0.957 | 1.24 | 0.495 | -0.168
in vitro model: intracellular J774, time point: constant = terminal | – | 0.948 | – | 0.585 | -0.511

Conditions | AUC25, [4] | Einf, [3] | FIC50, [2] | FIC90, [1] | GRinf, [5]
in vitro model: butyrate, time point: constant (~7 days, model-specific) | 0.0872 | 0.88 | 0.492 | – | 0.121
in vitro model: butyrate, time point: terminal (~4-5 doublings, model-specific) | 0.0727 | 0.934 | 0.333 | 0.243 | 0.126
in vitro model: cholesterol 0.05 mM, time point: constant (~7 days, model-specific) | 0.151 | 0.741 | 0.049 | – | -0.189
in vitro model: cholesterol 0.05 mM, time point: terminal (~4-5 doublings, model-specific) | 0.155 | 0.952 | -0.615 | – | -0.325
in vitro model: cholesterol-high 0.2 mM, time point: constant (~7 days, model-specific) | 0.106 | 0.935 | 0.732 | – | -0.702
in vitro model: cholesterol-high 0.2 mM, time point: terminal (~4-5 doublings, model-specific) | 0.104 | 1 | 0.569 | 1.03 | -0.951
in vitro model: dormancy (butyrate + nitrate, low O2), time point: constant (~7 days, model-specific) | 0.125 | 0.811 | 0.653 | – | 0.461
in vitro model: dormancy (butyrate + nitrate, low O2), time point: terminal (~4-5 doublings, model-specific) | 0.106 | 0.943 | -0.181 | 0.335 | -0.432
in vitro model: standard 7H9 glycerol, time point: constant = terminal | 0.0844 | 0.892 | 0.485 | – | 0.15
in vitro model: valerate, time point: constant (~7 days, model-specific) | 0.091 | 0.817 | -0.233 | – | 0.187
in vitro model: valerate, time point: terminal (~4-5 doublings, model-specific) | 0.0651 | 0.909 | 0.293 | 0.0781 | 0.127

CC[C@@H](CO)NCCN[C@@H](CC)CO [ethambutol] + CO[C@H]1/C=C/O[C@@]2(C)Oc3c(C)c(O)c4c(O)c(c(/C=N/N5CCN(C6CCCC6)CC5)c(O)c4c3C2=O)NC(=O)/C(C)=C\C=C\[C@H](C)[C@H](O)[C@@H](C)[C@@H](O)[C@@H](C)[C@H](OC(C)=O)[C@@H]1C [rifapentine]
Conditions | AUC25, [4] | Einf, [3] | FIC50, [2] | FIC90, [1] | GRinf, [5]
in vitro model: acidic pH 5.7, time point: constant (~7 days, model-specific) | 0.0932 | 0.893 | -0.302 | – | -0.289
in vitro model: acidic pH 5.7, time point: terminal (~4-5 doublings, model-specific) | 0.0462 | 0.985 | 0.0731 | -0.209 | -0.287
in vitro model: intracellular J774, time point: constant = terminal | – | 0.959 | – | -2.62 | -0.236

Conditions | AUC25, [4] | Einf, [3] | FIC50, [2] | FIC90, [1] | GRinf, [5]
in vitro model: butyrate, time point: constant (~7 days, model-specific) | 0.0627 | 0.91 | 0.244 | – | 0.0321
in vitro model: butyrate, time point: terminal (~4-5 doublings, model-specific) | 0.0478 | 0.959 | 0.226 | -0.659 | 0.0099
in vitro model: cholesterol 0.05 mM, time point: constant (~7 days, model-specific) | 0.118 | 0.694 | 0.509 | – | -0.191
in vitro model: cholesterol 0.05 mM, time point: terminal (~4-5 doublings, model-specific) | 0.0857 | 0.889 | 0.404 | – | -0.163
in vitro model: cholesterol-high 0.2 mM, time point: constant (~7 days, model-specific) | 0.0262 | 0.944 | 0.734 | – | -0.482
in vitro model: cholesterol-high 0.2 mM, time point: terminal (~4-5 doublings, model-specific) | 0.0335 | 1 | 0.916 | 0.787 | -0.739
in vitro model: dormancy (butyrate + nitrate, low O2), time point: constant (~7 days, model-specific) | 0.103 | 0.855 | 0.28 | – | 0.366
in vitro model: dormancy (butyrate + nitrate, low O2), time point: terminal (~4-5 doublings, model-specific) | 0.119 | 0.99 | 0.137 | 0.579 | -0.485
in vitro model: standard 7H9 glycerol, time point: constant = terminal | 0.0363 | 0.939 | 0.0721 | -0.243 | -0.0574
in vitro model: valerate, time point: constant (~7 days, model-specific) | 0.0721 | 0.874 | 0.0991 | – | 0.0371
in vitro model: valerate, time point: terminal (~4-5 doublings, model-specific) | 0.034 | 0.935 | 0.275 | -0.509 | 0.0428
